US7659404B2, “Broad spectrum 2-(substituted-amino)-benzothiazole sulfonamide HIV protease inhibitors” (Tibotec Pharmaceuticals Ltd., priority 2001, dated 2010)
Like-named read-outs stand apart in the source and are kept apart here.

Assays:
[1] = system: HIV-1 strain LAI; experiment: Cellular anti-HIV assay in MT4 cells (MTT), wild type laboratory strain; type: cell-based; details: read-out: EC50 value against HIV-1 strain LAI
Method in brief: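 MT4 cells infected with HIV-1 (or mock-infected) cultured five days with serial compound dilutions. Viability by MTT reduction, formazan dissolved in isopropanol, absorbance at 540 nm; EC50/EC90 = protection from viral cytopathic effect, CC50 = 50% growth inhibition of mock-infected cells.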

[2] = system: virus strain F (R13025); experiment: microbe, parasite or virus in culture; type: cell-based, HIV; details: FR=EC50(mutant strain)/EC50(HIV-1 strain LAI); strain F
Method in brief: (§1)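 HIV-infected MT4 cells were incubated five days with inhibitor, and viability was read by MTT reduction at 540 nm. EC50/EC90 are the concentrations protecting 50%/90% of cells from viral cytopathic effect. Fold resistance is EC50 against the clinical isolate divided by EC50 against HIV-1 LAI.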

[3] = system: virus strain S (R13080); experiment: microbe, parasite or virus in culture; type: cell-based, HIV; details: FR=EC50(mutant strain)/EC50(HIV-1 strain LAI); strain S
Method in brief: as §1

[4] = system: clinically isolated HIV strain A; experiment: Antiviral spectrum, cellular assay (fold resistance), strain A; type: cell-based; details: FR=EC50(mutant strain)/EC50(HIV-1 strain LAI)
Method in brief: (§2)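 MT4 cells infected with clinical protease-inhibitor-resistant HIV isolates, cultured 5 days with compound. Cell protection read by MTT formazan absorbance at 540 nm to give EC50. Fold resistance = EC50(mutant)/EC50(HIV-1 LAI).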

[5] = system: clinically isolated HIV strain B; experiment: Antiviral spectrum, cellular assay (fold resistance), strain B; type: cell-based; details: FR=EC50(mutant strain)/EC50(HIV-1 strain LAI)
Method in brief: as §2

[6] = system: clinically isolated HIV strain C; experiment: Antiviral spectrum, cellular assay (fold resistance), strain C; type: cell-based; details: FR=EC50(mutant strain)/EC50(HIV-1 strain LAI)
Method in brief: as §2

[7] = system: clinically isolated HIV strain D; experiment: Antiviral spectrum, cellular assay (fold resistance), strain D; type: cell-based; details: FR=EC50(mutant strain)/EC50(HIV-1 strain LAI)
Method in brief: as §2

[8] = system: clinically isolated HIV strain E; experiment: Antiviral spectrum, cellular assay (fold resistance), strain E; type: cell-based; details: FR=EC50(mutant strain)/EC50(HIV-1 strain LAI)
Method in brief: as §2

[9] = system: clinically isolated HIV strain G; experiment: Antiviral spectrum, cellular assay (fold resistance), strain G; type: cell-based; details: FR=EC50(mutant strain)/EC50(HIV-1 strain LAI)
Method in brief: as §2

[10] = system: clinically isolated HIV strain H; type: cell-based; details: FR=EC50(mutant strain)/EC50(HIV-1 strain LAI)
Method in brief: as §1

[11] = system: clinically isolated HIV strain I; type: cell-based; details: FR=EC50(mutant strain)/EC50(HIV-1 strain LAI)
Method in brief: as §1

[12] = system: clinically isolated HIV strain J; type: cell-based; details: FR=EC50(mutant strain)/EC50(HIV-1 strain LAI)
Method in brief: as §1

[13] = system: clinically isolated HIV strain O; type: cell-based; details: FR=EC50(mutant strain)/EC50(HIV-1 strain LAI)
Method in brief: as §1

[14] = system: clinically isolated HIV strain T; type: cell-based; details: FR=EC50(mutant strain)/EC50(HIV-1 strain LAI)
Method in brief: as §1

[15] = system: clinically isolated HIV strain K; experiment: Antiviral spectrum, cellular assay (fold resistance), strain K; type: cell-based; details: FR=EC50(mutant strain)/EC50(HIV-1 strain LAI)
Method in brief: as §2

[16] = system: clinically isolated HIV strain L; experiment: Antiviral spectrum, cellular assay (fold resistance), strain L; type: cell-based; details: FR=EC50(mutant strain)/EC50(HIV-1 strain LAI)
Method in brief: as §2

[17] = system: clinically isolated HIV strain M; experiment: Antiviral spectrum, cellular assay (fold resistance), strain M; type: cell-based; details: FR=EC50(mutant strain)/EC50(HIV-1 strain LAI)
Method in brief: as §2

[18] = system: clinically isolated HIV strain N; experiment: Antiviral spectrum, cellular assay (fold resistance), strain N; type: cell-based; details: FR=EC50(mutant strain)/EC50(HIV-1 strain LAI)
Method in brief: as §2

[19] = system: clinically isolated HIV strain P; experiment: Antiviral spectrum, cellular assay (fold resistance), strain P; type: cell-based; details: FR=EC50(mutant strain)/EC50(HIV-1 strain LAI)
Method in brief: as §2

[20] = system: clinically isolated HIV strain Q; experiment: Antiviral spectrum, cellular assay (fold resistance), strain Q; type: cell-based; details: FR=EC50(mutant strain)/EC50(HIV-1 strain LAI)
Method in brief: as §2

[21] = system: clinically isolated HIV strain R; experiment: Antiviral spectrum, cellular assay (fold resistance), strain R; type: cell-based; details: FR=EC50(mutant strain)/EC50(HIV-1 strain LAI)
Method in brief: as §2

[22] = Pharmacokinetics after oral dosing in rats (LC-MS); type: in vivo, Whistar rats; details: for concentration at 3 h / Cmax: Wistar, blood, 10 mg/kg, or, rat, 10 mpk, DMSO; for concentration at 3 h: oral, read-out: C3hours; for Cmax: po
Experimental: (§3) The pharmacokinetic properties of compounds 20, 88 and 90 were tested on rats and dogs. The compounds were evaluated in Whistar rats, source Iffa Credo, weighing approximately 350 g. Before dosing the animals were fasted overnight (approximately 12 h fasting period). The compounds were dissolved in DMSO. The results represented in the table concern the results from the oral dosing of the compounds. Blood was sampled at 30 min, 1 h, 2 h, 3 h, no pre-dose sample was taken. The amount of the compound in the biological sample was determined using LC-MS. In the table below “or” means oral dosing, “mpk” means mg per kilogram.

[23] = Pharmacokinetics after oral dosing in dogs (LC-MS); type: in vivo; details: blood, 10 mg/kg, or, dog, 10 mpk
Experimental: as §3

[24] = Human immunodeficiency virus 1, 120 h, MT4 cells, five days, MTT

Compound | EC50 [1, 24] [nM] | fold resistance (FR), strain F [2] | fold resistance (FR), strain S [3] | fold resistance (FR), strain A [4] | fold resistance (FR), strain B [5] | fold resistance (FR), strain C [6] | fold resistance (FR), strain D [7] | fold resistance (FR), strain E [8] | fold resistance (FR), strain G [9] | fold resistance (FR), strain H [10] | fold resistance (FR), strain I [11] | fold resistance (FR), strain J [12] | fold resistance (FR), strain O [13] | fold resistance (FR), strain T [14] | fold resistance (FR), strain K [15] | fold resistance (FR), strain L [16] | fold resistance (FR), strain M [17] | fold resistance (FR), strain N [18] | concentration at 3 h [22] [ng/mL] | Cmax [22] [ng/mL] | also measured
CC(C)CN(C[C@@H](O)[C@H](Cc1ccccc1)NC(=O)O[C@H]1CO[C@H]2OCC[C@H]21)S(=O)(=O)c1ccc2nc(NCCN(C)C)sc2c1 [Compound 16] | < 50 | 0.4 | 1.6 | 0.2 | 0.3 | 0.2 | 0.2 | 0.3 | 0.2 | 0.3 | 0.3 | 0.3 | 0.3 | 6.6 | 0.2 | 0.1 | 0.2 | 0.4 | – | – | fold resistance (FR), strain P [19]: 0.1; fold resistance (FR), strain Q [20]: 0.2; fold resistance (FR), strain R [21]: 0.2
CC(C)CN(C[C@@H](O)[C@H](Cc1ccccc1)NC(=O)O[C@H]1CO[C@H]2OCC[C@H]21)S(=O)(=O)c1ccc2nc(NCCN3CCCC3)sc2c1 [Compound 20] | – | 0.5 | 0.5 | – | – | – | – | – | – | 0.5 | 0.4 | 0.2 | 0.2 | 2.6 | – | – | – | – | 401 | 1420 | EC50 ([1]; Human immunodeficiency virus 1, MT4, 120 h): 50 to 500 nM; plasma level ([22]; oral dosing, comment on Table 8 (rats and dogs)): high; Cmax ([23]; DMSO): 713 ng/mL
Cc1cc(N)ccc1C(=O)NC(Cc1ccccc1)C(O)CN(CC(C)C)S(=O)(=O)c1ccc2nc(NC(=O)CN(C)C)sc2c1 (stereo not drawn) [Compound 43] | < 50 | 1.1 | 3.0 | 1.1 | 0.9 | 1.1 | 0.9 | 0.7 | 0.6 | 1.3 | 1.5 | 3.4 | 2.4 | 31.4 | 0.4 | 1.0 | 1.2 | 1.2 | – | – | fold resistance (FR), strain P [19]: 0.2; fold resistance (FR), strain Q [20]: 1.1; fold resistance (FR), strain R [21]: 1.0
CC(C)CN(C[C@@H](O)[C@H](Cc1ccccc1)NC(=O)O[C@H]1CO[C@H]2OCC[C@H]21)S(=O)(=O)c1ccc2nc(N(C)CCCN(C)C)sc2c1 [Compound 88] | < 50 | 8.7 | 26.3 | – | – | – | – | – | – | – | – | – | – | – | – | – | – | – | 225 | 254 | Cmax ([23]; (PEG)): 379 ng/mL
CC(C)CN(C[C@@H](O)[C@H](Cc1ccccc1)NC(=O)O[C@H]1CCOC1)S(=O)(=O)c1ccc2nc(NCCN(C)C)sc2c1 [Compound 90] | < 50 | 28.8 | 128.8 | – | – | – | – | – | – | – | – | – | – | – | – | – | – | – | 684 | 893 | Cmax ([23]; DMSO): 550 ng/mL
